Like-named read-outs stand apart in the source and are kept apart here.
Legend:
Assay in all cases: Kinome profiler screen
Type in all cases: biochemical
[1] = biological target: T1, ALK4 (Homo sapiens, UniProt P36896); details: at 20,000 nM inhibitor; kinase activity remaining
T1 construct: purchased Millipore KinaseProfiler

[2] = biological target: T2, AMPKα2 (Homo sapiens, UniProt P54646); details: at 20,000 nM inhibitor; kinase activity remaining
T2 construct: purchased Millipore KinaseProfiler

[3] = biological target: T3, CaMKI (Homo sapiens, UniProt Q14012); details: at 20,000 nM inhibitor; kinase activity remaining
T3 construct: purchased Millipore KinaseProfiler

[4] = biological target: T4, CDK2/cyclinE (Homo sapiens, UniProt P24941); details: at 20,000 nM inhibitor; kinase activity remaining
T4 construct: purchased Millipore KinaseProfiler

[5] = biological target: T5, CDK5/p25 (Homo sapiens, UniProt Q00535); details: at 20,000 nM inhibitor; kinase activity remaining
T5 construct: purchased Millipore KinaseProfiler

[6] = biological target: T6, CDK7/cyclinH/MAT1 (Homo sapiens, UniProt P50613); details: at 20,000 nM inhibitor; kinase activity remaining
T6 construct: purchased Millipore KinaseProfiler

[7] = biological target: T7, CHK1 (Homo sapiens, UniProt O14757); details: at 20,000 nM inhibitor; kinase activity remaining
T7 construct: purchased Millipore KinaseProfiler

[8] = biological target: T8, CK1γ1 (Homo sapiens, UniProt Q9HCP0); details: at 20,000 nM inhibitor; kinase activity remaining
T8 construct: purchased Millipore KinaseProfiler

[9] = biological target: T9, cKit(D816V) (Homo sapiens, UniProt P10721, D816V); details: at 20,000 nM inhibitor; kinase activity remaining
T9 construct: purchased Millipore KinaseProfiler

[10] = biological target: T10, cKit(V560G) (Homo sapiens, UniProt P10721, V560G); details: at 20,000 nM inhibitor; kinase activity remaining
T10 construct: purchased Millipore KinaseProfiler

[11] = biological target: T11, DAPK1 (Homo sapiens, UniProt P53355); details: at 20,000 nM inhibitor; kinase activity remaining
T11 construct: purchased Millipore KinaseProfiler

[12] = biological target: T12, DCAMKL2 (Homo sapiens, UniProt Q8N568); details: at 20,000 nM inhibitor; kinase activity remaining
T12 construct: purchased Millipore KinaseProfiler

[13] = biological target: T13, DMPK (Homo sapiens, UniProt Q09013); details: at 20,000 nM inhibitor; kinase activity remaining
T13 construct: purchased Millipore KinaseProfiler

[14] = biological target: T14, EphA2 (Homo sapiens, UniProt P29317); details: at 20,000 nM inhibitor; kinase activity remaining
T14 construct: purchased Millipore KinaseProfiler

[15] = biological target: T15, EphA4 (Homo sapiens, UniProt P54764); details: at 20,000 nM inhibitor; kinase activity remaining
T15 construct: purchased Millipore KinaseProfiler

[16] = biological target: T16, FGFR1 (Homo sapiens, UniProt P11362); details: at 20,000 nM inhibitor; kinase activity remaining
T16 construct: purchased Millipore KinaseProfiler

[17] = biological target: T17, FGFR1(V561M) (Homo sapiens, UniProt P11362, V561M); details: at 20,000 nM inhibitor; kinase activity remaining
T17 construct: purchased Millipore KinaseProfiler

[18] = biological target: T18, Fgr (Homo sapiens, UniProt P09769); details: at 20,000 nM inhibitor; kinase activity remaining
T18 construct: purchased Millipore KinaseProfiler

[19] = biological target: T19, Flt1 (Homo sapiens, UniProt P17948); details: for activity at 20 µM: at 20,000 nM inhibitor, kinase activity remaining
T19 construct: purchased Millipore

[20] = biological target: T20, HIPK1 (Homo sapiens, UniProt Q86Z02); details: at 20,000 nM inhibitor; kinase activity remaining
T20 construct: purchased Millipore KinaseProfiler

[21] = biological target: T21, IR, activated (Homo sapiens, UniProt P06213); details: at 20,000 nM inhibitor; kinase activity remaining
T21 construct: purchased Millipore KinaseProfiler

[22] = biological target: T22, IRAK1 (Homo sapiens, UniProt P51617); details: at 20,000 nM inhibitor; kinase activity remaining
T22 construct: purchased Millipore KinaseProfiler

[23] = biological target: T23, JAK3 (Homo sapiens, UniProt P52333); details: at 20,000 nM inhibitor; kinase activity remaining
T23 construct: purchased Millipore KinaseProfiler

[24] = biological target: T24, LIMK1 (Homo sapiens, UniProt P53667); details: at 20,000 nM inhibitor; kinase activity remaining
T24 construct: purchased Millipore KinaseProfiler

[25] = biological target: T25, MAPK1 (Homo sapiens, UniProt P27361); details: at 20,000 nM inhibitor; kinase activity remaining
T25 construct: purchased Millipore KinaseProfiler

[26] = biological target: T26, MEK1 (Homo sapiens, UniProt Q02750); details: at 20,000 nM inhibitor; kinase activity remaining
T26 construct: purchased Millipore KinaseProfiler

[27] = biological target: T27, MSK1 (Homo sapiens, UniProt O75582); details: at 20,000 nM inhibitor; kinase activity remaining
T27 construct: purchased Millipore KinaseProfiler

[28] = biological target: T28, mTOR (Homo sapiens, UniProt P42345); details: at 20,000 nM inhibitor; kinase activity remaining
T28 construct: purchased Millipore KinaseProfiler

[29] = biological target: T29, NEK6 (Homo sapiens, UniProt Q9HC98); details: at 20,000 nM inhibitor; kinase activity remaining
T29 construct: purchased Millipore KinaseProfiler

[30] = biological target: T30, NEK11 (Homo sapiens, UniProt Q8NG66); details: at 20,000 nM inhibitor; kinase activity remaining
T30 construct: purchased Millipore KinaseProfiler

[31] = biological target: T31, p70S6K (Homo sapiens, UniProt P23443); details: at 20,000 nM inhibitor; kinase activity remaining
T31 construct: purchased Millipore KinaseProfiler

[32] = biological target: T32, PDGFRα (Homo sapiens, UniProt P16234); details: at 20,000 nM inhibitor; kinase activity remaining
T32 construct: purchased Millipore KinaseProfiler

[33] = biological target: T33, PI3 Kinase (p110α (E542K)/p85α) (Homo sapiens, UniProt P42336, E542K); details: at 20,000 nM inhibitor; kinase activity remaining
T33 construct: purchased Millipore KinaseProfiler

[34] = biological target: T34, PI3K-C2γ (Homo sapiens, UniProt O75747); details: at 20,000 nM inhibitor; kinase activity remaining
T34 construct: purchased Millipore KinaseProfiler

[35] = biological target: T35, Pim-1 (Homo sapiens, UniProt P11309); details: at 20,000 nM inhibitor; kinase activity remaining
T35 construct: purchased Millipore KinaseProfiler

[36] = biological target: T36, PKCη (Homo sapiens, UniProt P24723); details: at 20,000 nM inhibitor; kinase activity remaining
T36 construct: purchased Millipore KinaseProfiler

[37] = biological target: T37, PKCι (Homo sapiens, UniProt P41743); details: at 20,000 nM inhibitor; kinase activity remaining
T37 construct: purchased Millipore KinaseProfiler

[38] = biological target: T38, ROCK-II(r) (Rattus norvegicus, UniProt Q62868); details: at 20,000 nM inhibitor; kinase activity remaining
T38 construct: purchased Millipore KinaseProfiler

[39] = biological target: T39, Rsk1 (Homo sapiens, UniProt Q15418); details: at 20,000 nM inhibitor; kinase activity remaining
T39 construct: purchased Millipore KinaseProfiler

[40] = biological target: T40, Rsk1(r) (Rattus norvegicus, UniProt Q63531); details: at 20,000 nM inhibitor; kinase activity remaining
T40 construct: purchased Millipore KinaseProfiler

[41] = biological target: T41, STK33 (Homo sapiens, UniProt Q9BYT3); details: at 20,000 nM inhibitor; kinase activity remaining
T41 construct: purchased Millipore KinaseProfiler

[42] = biological target: T42, TGFBR1 (Homo sapiens, UniProt P36897); details: at 20,000 nM inhibitor; kinase activity remaining
T42 construct: purchased Millipore KinaseProfiler

[43] = biological target: T43, TrkB (Homo sapiens, UniProt Q16620)
T43 construct: purchased Millipore KinaseProfiler

[44] = biological target: T44, ULK2 (Homo sapiens, UniProt Q8IYT8); details: at 20,000 nM inhibitor; kinase activity remaining
T44 construct: purchased Millipore KinaseProfiler
T44 sequence (Q8IYT8 whole entry): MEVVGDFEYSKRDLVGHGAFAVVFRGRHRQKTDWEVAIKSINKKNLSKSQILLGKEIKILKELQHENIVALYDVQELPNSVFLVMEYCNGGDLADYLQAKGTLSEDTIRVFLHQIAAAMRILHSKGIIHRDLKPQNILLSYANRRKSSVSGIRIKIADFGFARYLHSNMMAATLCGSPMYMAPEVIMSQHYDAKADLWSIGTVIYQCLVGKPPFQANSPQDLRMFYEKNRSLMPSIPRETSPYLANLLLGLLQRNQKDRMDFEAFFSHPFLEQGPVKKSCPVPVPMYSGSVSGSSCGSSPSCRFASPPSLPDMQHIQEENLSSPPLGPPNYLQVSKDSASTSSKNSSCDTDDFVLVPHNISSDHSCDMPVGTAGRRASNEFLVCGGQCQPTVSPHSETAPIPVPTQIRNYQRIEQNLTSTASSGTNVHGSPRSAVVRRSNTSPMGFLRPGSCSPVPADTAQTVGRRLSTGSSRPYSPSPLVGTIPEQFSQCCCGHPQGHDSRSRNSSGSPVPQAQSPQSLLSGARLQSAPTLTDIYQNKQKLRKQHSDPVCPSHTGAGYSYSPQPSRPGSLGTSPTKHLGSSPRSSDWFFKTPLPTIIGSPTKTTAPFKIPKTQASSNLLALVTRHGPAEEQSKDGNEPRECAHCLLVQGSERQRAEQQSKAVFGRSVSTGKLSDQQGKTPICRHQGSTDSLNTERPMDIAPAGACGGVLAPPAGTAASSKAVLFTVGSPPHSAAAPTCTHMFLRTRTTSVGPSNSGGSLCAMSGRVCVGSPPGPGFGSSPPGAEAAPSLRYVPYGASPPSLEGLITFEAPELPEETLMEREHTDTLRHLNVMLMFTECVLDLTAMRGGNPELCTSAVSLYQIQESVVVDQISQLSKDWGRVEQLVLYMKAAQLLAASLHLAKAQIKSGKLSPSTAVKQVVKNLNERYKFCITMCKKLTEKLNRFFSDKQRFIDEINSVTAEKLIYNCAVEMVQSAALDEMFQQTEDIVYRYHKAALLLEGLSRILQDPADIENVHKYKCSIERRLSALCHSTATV

T19 sequence (P17948 27-1338): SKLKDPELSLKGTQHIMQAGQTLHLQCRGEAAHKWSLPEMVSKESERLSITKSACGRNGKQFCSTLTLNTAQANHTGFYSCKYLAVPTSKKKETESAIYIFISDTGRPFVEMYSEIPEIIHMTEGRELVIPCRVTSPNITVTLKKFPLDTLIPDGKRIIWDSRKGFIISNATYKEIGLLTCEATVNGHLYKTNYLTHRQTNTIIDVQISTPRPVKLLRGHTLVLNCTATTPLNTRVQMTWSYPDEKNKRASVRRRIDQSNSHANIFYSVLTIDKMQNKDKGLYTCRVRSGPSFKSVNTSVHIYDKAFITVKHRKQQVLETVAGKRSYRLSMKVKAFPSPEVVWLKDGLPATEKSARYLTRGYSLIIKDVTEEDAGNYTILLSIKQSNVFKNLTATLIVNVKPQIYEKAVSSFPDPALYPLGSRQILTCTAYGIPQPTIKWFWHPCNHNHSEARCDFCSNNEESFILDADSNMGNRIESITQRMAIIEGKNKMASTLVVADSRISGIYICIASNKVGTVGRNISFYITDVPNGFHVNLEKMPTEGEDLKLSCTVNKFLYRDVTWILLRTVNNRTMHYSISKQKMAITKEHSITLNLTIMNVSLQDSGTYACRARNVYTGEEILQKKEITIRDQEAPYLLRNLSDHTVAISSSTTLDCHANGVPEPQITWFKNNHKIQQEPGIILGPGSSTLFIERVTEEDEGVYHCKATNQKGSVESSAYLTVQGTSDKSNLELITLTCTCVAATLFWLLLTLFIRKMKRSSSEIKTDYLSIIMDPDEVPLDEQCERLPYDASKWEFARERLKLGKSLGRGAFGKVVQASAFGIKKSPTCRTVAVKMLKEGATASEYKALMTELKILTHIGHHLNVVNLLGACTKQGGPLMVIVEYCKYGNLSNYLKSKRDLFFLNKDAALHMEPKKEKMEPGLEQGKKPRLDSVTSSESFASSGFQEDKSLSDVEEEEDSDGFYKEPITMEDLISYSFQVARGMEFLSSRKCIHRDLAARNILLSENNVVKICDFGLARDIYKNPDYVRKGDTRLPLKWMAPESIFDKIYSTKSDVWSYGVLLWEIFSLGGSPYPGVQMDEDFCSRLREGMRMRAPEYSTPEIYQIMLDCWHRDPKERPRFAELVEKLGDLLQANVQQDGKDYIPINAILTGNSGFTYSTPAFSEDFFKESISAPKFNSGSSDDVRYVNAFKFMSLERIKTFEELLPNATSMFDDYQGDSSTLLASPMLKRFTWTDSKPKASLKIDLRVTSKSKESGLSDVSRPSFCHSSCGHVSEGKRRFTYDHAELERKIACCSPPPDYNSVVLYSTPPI
T7 sequence (O14757 whole entry): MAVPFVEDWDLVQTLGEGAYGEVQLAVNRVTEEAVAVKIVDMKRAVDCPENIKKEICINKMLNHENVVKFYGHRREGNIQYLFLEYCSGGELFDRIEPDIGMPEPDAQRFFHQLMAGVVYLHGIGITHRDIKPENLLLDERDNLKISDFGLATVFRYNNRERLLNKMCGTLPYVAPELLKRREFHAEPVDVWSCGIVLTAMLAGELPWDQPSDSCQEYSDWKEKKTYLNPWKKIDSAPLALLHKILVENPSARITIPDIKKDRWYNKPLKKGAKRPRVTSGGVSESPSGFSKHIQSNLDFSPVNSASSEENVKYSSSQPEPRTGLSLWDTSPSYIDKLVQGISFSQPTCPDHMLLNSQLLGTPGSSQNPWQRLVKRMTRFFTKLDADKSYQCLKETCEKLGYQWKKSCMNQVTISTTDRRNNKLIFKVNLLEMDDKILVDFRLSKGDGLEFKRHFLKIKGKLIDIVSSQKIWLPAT
T35 sequence (P11309 whole entry): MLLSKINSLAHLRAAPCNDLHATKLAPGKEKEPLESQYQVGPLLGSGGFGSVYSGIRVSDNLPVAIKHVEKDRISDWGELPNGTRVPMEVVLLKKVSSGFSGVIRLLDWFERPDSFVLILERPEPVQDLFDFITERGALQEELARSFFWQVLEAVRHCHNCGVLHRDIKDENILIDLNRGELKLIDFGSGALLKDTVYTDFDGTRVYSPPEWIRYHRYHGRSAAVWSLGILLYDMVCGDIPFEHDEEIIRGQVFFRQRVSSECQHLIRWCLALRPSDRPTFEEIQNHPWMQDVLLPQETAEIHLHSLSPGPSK
T20 sequence (Q86Z02 whole entry): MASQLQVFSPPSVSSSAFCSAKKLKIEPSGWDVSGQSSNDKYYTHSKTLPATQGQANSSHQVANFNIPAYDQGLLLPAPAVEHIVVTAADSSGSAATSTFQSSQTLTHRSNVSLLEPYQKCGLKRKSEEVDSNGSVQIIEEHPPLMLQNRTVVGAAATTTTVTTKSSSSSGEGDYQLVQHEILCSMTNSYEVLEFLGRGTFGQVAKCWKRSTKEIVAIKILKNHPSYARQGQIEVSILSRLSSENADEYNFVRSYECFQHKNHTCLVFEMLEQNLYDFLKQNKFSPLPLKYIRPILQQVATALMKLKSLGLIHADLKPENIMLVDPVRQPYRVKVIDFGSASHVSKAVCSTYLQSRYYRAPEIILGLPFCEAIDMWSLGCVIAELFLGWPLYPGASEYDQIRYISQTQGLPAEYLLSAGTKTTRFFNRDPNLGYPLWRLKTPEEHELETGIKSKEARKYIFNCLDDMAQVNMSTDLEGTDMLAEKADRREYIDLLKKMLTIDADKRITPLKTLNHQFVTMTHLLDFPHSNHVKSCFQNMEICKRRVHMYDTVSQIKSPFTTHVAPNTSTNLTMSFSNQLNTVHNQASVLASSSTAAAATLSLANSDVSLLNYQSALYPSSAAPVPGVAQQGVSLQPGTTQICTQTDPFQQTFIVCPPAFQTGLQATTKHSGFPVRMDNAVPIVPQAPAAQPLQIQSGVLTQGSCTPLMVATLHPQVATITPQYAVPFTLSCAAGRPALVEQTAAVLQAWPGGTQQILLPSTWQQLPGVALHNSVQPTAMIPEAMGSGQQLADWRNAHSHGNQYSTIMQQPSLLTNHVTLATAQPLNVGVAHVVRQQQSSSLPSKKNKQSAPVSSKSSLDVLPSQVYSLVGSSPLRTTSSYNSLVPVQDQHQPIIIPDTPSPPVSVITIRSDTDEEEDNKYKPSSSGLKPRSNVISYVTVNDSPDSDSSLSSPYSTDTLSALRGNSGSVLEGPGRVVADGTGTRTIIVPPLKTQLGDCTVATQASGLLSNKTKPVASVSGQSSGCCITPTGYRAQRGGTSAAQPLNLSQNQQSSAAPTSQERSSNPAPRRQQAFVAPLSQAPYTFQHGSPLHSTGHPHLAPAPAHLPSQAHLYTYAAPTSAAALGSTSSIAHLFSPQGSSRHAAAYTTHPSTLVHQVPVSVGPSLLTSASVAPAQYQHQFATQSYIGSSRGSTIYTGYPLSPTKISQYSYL
T24 sequence (P53667 whole entry): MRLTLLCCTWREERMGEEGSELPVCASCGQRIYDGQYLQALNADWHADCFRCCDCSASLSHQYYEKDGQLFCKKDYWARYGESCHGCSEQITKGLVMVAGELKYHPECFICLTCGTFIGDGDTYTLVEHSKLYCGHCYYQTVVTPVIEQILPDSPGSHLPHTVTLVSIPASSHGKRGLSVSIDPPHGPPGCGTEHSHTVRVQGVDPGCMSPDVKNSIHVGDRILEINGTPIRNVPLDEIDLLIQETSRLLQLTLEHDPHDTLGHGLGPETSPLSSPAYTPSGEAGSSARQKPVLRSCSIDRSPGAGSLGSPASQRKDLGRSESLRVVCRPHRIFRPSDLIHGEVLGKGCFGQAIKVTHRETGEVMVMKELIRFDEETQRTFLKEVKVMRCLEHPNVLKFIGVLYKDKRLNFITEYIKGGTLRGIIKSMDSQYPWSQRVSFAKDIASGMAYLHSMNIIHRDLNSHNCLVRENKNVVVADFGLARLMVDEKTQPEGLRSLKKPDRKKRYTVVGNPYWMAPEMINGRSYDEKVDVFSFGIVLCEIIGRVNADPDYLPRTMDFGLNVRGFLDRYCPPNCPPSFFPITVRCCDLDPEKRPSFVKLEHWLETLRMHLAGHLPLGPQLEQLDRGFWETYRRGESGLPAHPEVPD

Compound: CN(C)c1cc(-c2ccncc2)c(-c2ccc3ccccc3c2)nn1 [MW108, N, N-dimethyl-6-(naphthalen-2-yl)-5-(pyridin-4-yl)pyridazin-3-amine]
- activity at 20 µM [1]: 95%
- activity at 20 µM [2]: 102%
- activity at 20 µM [3]: 101%
- activity at 20 µM [4]: 108%
- activity at 20 µM [5]: 106%
- activity at 20 µM [6]: 98%
- activity at 20 µM [7]: 94%
- activity at 20 µM [8]: 101%
- activity at 20 µM [9]: 103%
- activity at 20 µM [10]: 95%
- activity at 20 µM [11]: 92%
- activity at 20 µM [12]: 109%
- activity at 20 µM [13]: 108%
- activity at 20 µM [14]: 83%
- activity at 20 µM [15]: 97%
- activity at 20 µM [16]: 93%
- activity at 20 µM [17]: 90%
- activity at 20 µM [18]: 92%
- IC50 [19]: > 30 µM
- activity at 20 µM [19]: 38%
- activity at 20 µM [20]: 98%
- activity at 20 µM [21]: 103%
- activity at 20 µM [22]: 97%
- activity at 20 µM [23]: 90%
- activity at 20 µM [24]: 106%
- activity at 20 µM [25]: 82%
- activity at 20 µM [26]: 130%
- activity at 20 µM [27]: 97%
- activity at 20 µM [28]: 92%
- activity at 20 µM [29]: 103%
- activity at 20 µM [30]: 108%
- activity at 20 µM [31]: 92%
- activity at 20 µM [32]: 106%
- activity at 20 µM [33]: 99%
- activity at 20 µM [34]: 50%
- activity at 20 µM [35]: 103%
- activity at 20 µM [36]: 88%
- activity at 20 µM [37]: 92%
- activity at 20 µM [38]: 97%
- activity at 20 µM [39]: 93%
- activity at 20 µM [40]: 91%
- activity at 20 µM [41]: 106%
- activity at 20 µM [42]: 76%
- activity at 20 µM [43]: 78%
- activity at 20 µM [44]: 100%

Compound: CN(C)c1cc(-c2ccncc2)c(-c2cccc3ccccc23)nn1 [MW181, N,N-dimethyl-6-(naphthalen-1-yl)-5-(pyridin-4-yl)pyridazin-3-amine]
- activity at 20 µM [1]: 101%
- activity at 20 µM [2]: 95%
- activity at 20 µM [3]: 101%
- activity at 20 µM [4]: 118%
- activity at 20 µM [5]: 99%
- activity at 20 µM [6]: 99%
- activity at 20 µM [7]: 115%
- activity at 20 µM [8]: 101%
- activity at 20 µM [9]: 103%
- activity at 20 µM [10]: 71%
- activity at 20 µM [11]: 99%
- activity at 20 µM [12]: 101%
- activity at 20 µM [13]: 116%
- activity at 20 µM [14]: 91%
- activity at 20 µM [15]: 110%
- activity at 20 µM [16]: 103%
- activity at 20 µM [17]: 93%
- activity at 20 µM [18]: 90%
- activity at 20 µM [19]: 96%
- activity at 20 µM [20]: 107%
- activity at 20 µM [21]: 100%
- activity at 20 µM [22]: 102%
- activity at 20 µM [23]: 103%
- activity at 20 µM [24]: 95%
- activity at 20 µM [25]: 90%
- activity at 20 µM [26]: 105%
- activity at 20 µM [27]: 106%
- activity at 20 µM [28]: 109%
- activity at 20 µM [29]: 92%
- activity at 20 µM [30]: 121%
- activity at 20 µM [31]: 94%
- activity at 20 µM [32]: 103%
- activity at 20 µM [33]: 100%
- activity at 20 µM [34]: 97%
- activity at 20 µM [35]: 107%
- activity at 20 µM [36]: 104%
- activity at 20 µM [37]: 82%
- activity at 20 µM [38]: 92%
- activity at 20 µM [39]: 98%
- activity at 20 µM [40]: 93%
- activity at 20 µM [41]: 99%
- activity at 20 µM [42]: 113%
- activity at 20 µM ([43]; at 20,000 nM inhibitor, kinase activity remaining, read-out: % Activity): 109%
- activity at 20 µM [44]: 101%
